Data from ChEMBL document CHEMBL4017483, “Potent and selective oxytocin receptor agonists without disulfide bridges” (Bioorg Med Chem Lett, 2017).
Numbered stars: 1 amine (or outer) side, 2 acyl side, 3 side chain; on linkers, the order of the positions; unused ones are H or OH. Bridge positions count the residues as written; N and C are the ends. Square brackets hold non-standard residues; d marks the D form. Peptide text beside a SMILES is read from it. Hyp = O=C(O)[C@@H]1C[C@@H](O)CN1; tBuAla = CC(C)(C)C[C@H](N)C(=O)O; Suc = O=C(CCC(=O)[*:2])[*:1]; X1 = O=C(CCC[*:2])[*:1]; Dap = NC[C@H](N)C(=O)O; azaGly = NNC(=O)O; Mpa = O=C(O)CCS

Columns and labels:
[1] = species: Homo sapiens; assay: Selectivity ratio of EC50 for human V1a receptor to EC50 for human OTR
[2] = species: Homo sapiens; assay: Selectivity ratio of EC50 for human V1b receptor to EC50 for human OTR
[3] = molecular target: T1, Oxytocin receptor (Homo sapiens, UniProt P30559); assay: Agonist activity at human OTR expressed in CHO cells assessed as calcium mobilization measured after 30 mins by Fluo-4-AM dye based FLIPR assay; type: functional, cell-based
T1 sequence (P30559 whole entry): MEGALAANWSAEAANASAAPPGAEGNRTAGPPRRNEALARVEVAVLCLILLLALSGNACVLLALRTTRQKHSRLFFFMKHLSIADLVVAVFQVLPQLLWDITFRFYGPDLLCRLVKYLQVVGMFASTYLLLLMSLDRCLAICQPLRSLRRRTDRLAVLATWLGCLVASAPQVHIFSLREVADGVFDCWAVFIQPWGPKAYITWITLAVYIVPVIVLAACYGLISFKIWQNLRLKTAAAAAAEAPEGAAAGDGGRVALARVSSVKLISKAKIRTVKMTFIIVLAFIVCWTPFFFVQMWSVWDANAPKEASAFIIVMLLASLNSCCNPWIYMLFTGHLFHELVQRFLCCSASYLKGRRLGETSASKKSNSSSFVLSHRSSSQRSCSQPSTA

[4] = molecular target: T2, Vasopressin V1b receptor (Homo sapiens, UniProt P47901); assay: Agonist activity at human V1b receptor expressed in CHO cells assessed as calcium mobilization measured after 30 mins by Fluo-4-AM dye based FLIPR assay; type: cell-based
T2 sequence (P47901 whole entry): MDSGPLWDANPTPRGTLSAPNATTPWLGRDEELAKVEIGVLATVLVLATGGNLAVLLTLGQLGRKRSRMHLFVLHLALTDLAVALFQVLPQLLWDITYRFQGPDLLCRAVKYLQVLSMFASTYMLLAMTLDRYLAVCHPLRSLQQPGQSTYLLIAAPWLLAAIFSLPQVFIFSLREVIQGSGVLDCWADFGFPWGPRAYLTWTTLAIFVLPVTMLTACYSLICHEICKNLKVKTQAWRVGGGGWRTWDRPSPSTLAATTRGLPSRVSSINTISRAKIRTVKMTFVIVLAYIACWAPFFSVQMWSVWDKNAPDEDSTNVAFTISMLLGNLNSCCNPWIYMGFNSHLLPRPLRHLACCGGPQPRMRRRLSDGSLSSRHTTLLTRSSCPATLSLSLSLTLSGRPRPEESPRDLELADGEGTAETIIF

[5] = molecular target: Vasopressin V1a receptor (Homo sapiens, UniProt P37288); assay: Agonist activity at human V1a receptor expressed in CHO cells assessed as calcium mobilization measured after 30 mins by Fluo-4-AM dye based FLIPR assay; type: cell-based
Vasopressin V1a receptor, sequence (P37288 whole entry): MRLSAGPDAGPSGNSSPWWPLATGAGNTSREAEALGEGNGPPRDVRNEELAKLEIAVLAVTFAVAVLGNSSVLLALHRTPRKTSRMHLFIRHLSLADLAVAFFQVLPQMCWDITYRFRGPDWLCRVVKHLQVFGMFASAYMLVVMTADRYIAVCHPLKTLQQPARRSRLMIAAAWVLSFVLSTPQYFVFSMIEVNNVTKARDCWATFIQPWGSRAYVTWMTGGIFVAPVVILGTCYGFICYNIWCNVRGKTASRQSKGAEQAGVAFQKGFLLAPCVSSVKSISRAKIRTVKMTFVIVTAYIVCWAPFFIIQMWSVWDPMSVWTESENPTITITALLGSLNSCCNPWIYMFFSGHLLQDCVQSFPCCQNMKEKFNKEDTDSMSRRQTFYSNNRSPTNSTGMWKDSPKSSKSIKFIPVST

| Structure (SMILES) | Ratio EC50 [1] | Ratio EC50 [2] | EC50 [3] [nM] | EC50 [4] [nM] | EC50 [5] [nM] |
| --- | --- | --- | --- | --- | --- |
| CC[C@H](C)[C@@H]1NC(=O)[C@H](Cc2ccc(O)cc2)NC(=O)CCSSC[C@@H](C(=O)N[C@@H](CCC(=O)O)C(=O)N[C@@H](CC(C)C)C(=O)NCC(N)=O)NC(=O)[C@H](CC(N)=O)NC(=O)[C@H](CCC(N)=O)NC1=O ([Mpa]YIQNCELG-NH2; disulfide 1-6) | > 100 | > 100 | 0.35 | > 100 | > 100 |
| CC(C)C[C@@H]1NC(=O)[C@H](Cc2ccc(O)cc2)NC(=O)CCSSC[C@@H](C(=O)N2CCC[C@H]2C(=O)N[C@@H](CC(C)C)C(=O)NCC(N)=O)NC(=O)[C@H](CC(N)=O)NC(=O)[C@H](CCC(N)=O)NC1=O ([Mpa]YLQNCPLG-NH2; disulfide 1-6) | > 100 | 21 | 0.19 | 3.9 | > 100 |
| CC[C@H](C)[C@@H]1NC(=O)[C@H](Cc2ccc(O)cc2)NC(=O)CCSSC[C@@H](C(=O)N2CCC[C@H]2C(=O)N[C@@H](CO)C(=O)NCC(N)=O)NC(=O)[C@H](CC(N)=O)NC(=O)[C@H](CCC(N)=O)NC1=O ([Mpa]YIQNCPSG-NH2; disulfide 1-6) | > 1000 | 12 | 0.056 | 0.65 | > 100 |
| CC[C@H](C)[C@@H]1NC(=O)[C@H](Cc2ccc(O)cc2)NC(=O)CCSSC[C@@H](C(=O)N2CCC[C@H]2C(=O)N[C@@H](CCC(=O)O)C(=O)NCC(N)=O)NC(=O)[C@H](CC(N)=O)NC(=O)[C@H](CCC(N)=O)NC1=O ([Mpa]YIQNCPEG-NH2; disulfide 1-6) | > 100 | > 100 | 0.25 | > 100 | > 100 |
| CC[C@H](C)[C@@H]1NC(=O)[C@H](Cc2ccc(O)cc2)NC(=O)CCSSC[C@@H](C(=O)N2C[C@H](O)C[C@H]2C(=O)N[C@@H](CC(C)C)C(=O)NCC(N)=O)NC(=O)[C@H](CC(N)=O)NC(=O)[C@H](CCC(N)=O)NC1=O | > 10000 | > 10000 | 0.0053 | > 100 | > 100 |
| CC[C@H](C)[C@@H]1NC(=O)[C@H](Cc2ccc(O)cc2)NC(=O)CCSSC[C@@H](C(=O)N2CCC[C@H]2C(=O)N[C@@H](CC(C)C)C(=O)N(C)CC(N)=O)NC(=O)[C@H](CC(N)=O)NC(=O)[C@H](CCC(N)=O)NC1=O | > 100 | > 100 | 0.12 | > 100 | > 100 |
| CC[C@H](C)[C@@H]1NC(=O)[C@H](Cc2ccc(O)cc2)NC(=O)CCCSC[C@@H](C(=O)N2C[C@H](O)C[C@H]2C(=O)N[C@@H](CC(C)(C)C)C(=O)NCC(N)=O)NC(=O)[C@H](CC(N)=O)NC(=O)[C@H](CCC(N)=O)NC1=O (YIQNC[Hyp][tBuAla]G-NH2; linker N-5 via X1) | > 10000 | > 10000 | 0.0072 | > 100 | > 100 |
| CC[C@H](C)[C@@H]1NC(=O)[C@H](Cc2ccc(O)cc2)NC(=O)CCSSC[C@@H](C(=O)N2CCC[C@H]2C(=O)N[C@@H](CC(C)C)C(=O)N[C@@H](C)C(N)=O)NC(=O)[C@H](CC(N)=O)NC(=O)[C@H](CCC(N)=O)NC1=O ([Mpa]YIQNCPLA-NH2; disulfide 1-6) | > 10 | > 10 | 1.4 | > 100 | > 100 |
| CCCC[C@H](NC(=O)[C@@H]1CCCN1C(=O)[C@@H]1CSSCCC(=O)N[C@@H](Cc2ccc(O)cc2)C(=O)N[C@@H]([C@@H](C)CC)C(=O)N[C@@H](CCC(N)=O)C(=O)N[C@@H](CC(N)=O)C(=O)N1)C(=O)NCC(N)=O | 290 | 33 | 0.015 | 0.5 | 4.4 |
| CC[C@H](C)[C@@H]1NC(=O)[C@H](Cc2ccc(O)cc2)NC(=O)CCC(=O)NC[C@@H](C(=O)N2C[C@H](O)C[C@H]2C(=O)N[C@@H](CC(C)C)C(=O)NNC(N)=O)NC(=O)[C@H](CC(N)=O)NC(=O)[C@H](CCC(N)=O)NC1=O (YIQN[Dap][Hyp]L[azaGly]-NH2; linker N-5 via Suc) | > 1000 | > 1000 | 0.031 | > 100 | > 100 |
| CC[C@H](C)[C@@H]1NC(=O)[C@H](Cc2ccc(O)cc2)NC(=O)CCSSC[C@@H](C(=O)N[C@@H](CO)C(=O)N[C@@H](CC(C)C)C(=O)NCC(N)=O)NC(=O)[C@H](CC(N)=O)NC(=O)[C@H](CCC(N)=O)NC1=O ([Mpa]YIQNCSLG-NH2; disulfide 1-6) | > 1000 | > 1000 | 0.082 | > 100 | > 100 |
| CC[C@H](C)[C@@H]1NC(=O)[C@H](Cc2ccc(O)cc2)NC(=O)CCSSC[C@@H](C(=O)N2CCC[C@H]2C(=O)N[C@@H](Cc2ccccc2)C(=O)NCC(N)=O)NC(=O)[C@H](CC(N)=O)NC(=O)[C@H](CCC(N)=O)NC1=O ([Mpa]YIQNCPFG-NH2; disulfide 1-6) | > 1000 | 44 | 0.054 | 2.4 | > 100 |
| CC[C@H](C)[C@@H]1NC(=O)[C@H](CO)NC(=O)CCSSC[C@@H](C(=O)N2CCC[C@H]2C(=O)N[C@@H](CC(C)C)C(=O)NCC(N)=O)NC(=O)[C@H](CC(N)=O)NC(=O)[C@H](CCC(N)=O)NC1=O ([Mpa]SIQNCPLG-NH2; disulfide 1-6) | – | – | > 100 | > 100 | > 100 |
| CC[C@H](C)[C@@H]1NC(=O)[C@H](Cc2ccc(O)cc2)NC(=O)CCSSC[C@@H](C(=O)N2CCC[C@H]2C(=O)N[C@@H](CC(C)C)C(=O)NCC(N)=O)NC(=O)[C@H](CCCNC(=N)N)NC(=O)[C@H](CCC(N)=O)NC1=O ([Mpa]YIQRCPLG-NH2; disulfide 1-6) | – | – | > 100 | > 100 | > 100 |
| CC[C@H](C)[C@@H]1NC(=O)[C@H](Cc2ccc(O)cc2)NC(=O)CCSSC[C@@H](C(=O)N2CCC[C@H]2C(=O)N[C@@H](CC(C)C)C(=O)NCC(N)=O)NC(=O)[C@H](CC(C)C)NC(=O)[C@H](CCC(N)=O)NC1=O ([Mpa]YIQLCPLG-NH2; disulfide 1-6) | – | – | > 100 | > 100 | > 100 |
| CC(C)C[C@H](NC(=O)[C@@H]1CCCN1C(=O)[C@@H]1CSSCCC(=O)N[C@@H](Cc2ccc(O)cc2)C(=O)N[C@@H](CCC(=O)O)C(=O)N[C@@H](CCC(N)=O)C(=O)N[C@@H](CC(N)=O)C(=O)N1)C(=O)NCC(N)=O ([Mpa]YEQNCPLG-NH2; disulfide 1-6) | – | – | > 100 | > 100 | > 100 |
| CC[C@H](C)[C@@H]1NC(=O)[C@H](CCCNC(=N)N)NC(=O)CCSSC[C@@H](C(=O)N2CCC[C@H]2C(=O)N[C@@H](CC(C)C)C(=O)NCC(N)=O)NC(=O)[C@H](CC(N)=O)NC(=O)[C@H](CCC(N)=O)NC1=O ([Mpa]RIQNCPLG-NH2; disulfide 1-6) | – | – | > 100 | > 100 | > 100 |
| CC[C@H](C)[C@@H]1NC(=O)[C@H](Cc2ccc(O)cc2)NC(=O)CCSSC[C@@H](C(=O)N2CCC[C@H]2C(=O)N[C@@H](CC(C)C)C(=O)NCC(N)=O)NC(=O)[C@H](CC(N)=O)NC(=O)[C@H](CCC(N)=O)NC1=O | – | – | – | 3.2 | – |
| CC[C@H](C)[C@@H]1NC(=O)[C@H](C)NC(=O)CCSSC[C@@H](C(=O)N2CCC[C@H]2C(=O)N[C@@H](CC(C)C)C(=O)NCC(N)=O)NC(=O)[C@H](CC(N)=O)NC(=O)[C@H](CCC(N)=O)NC1=O ([Mpa]AIQNCPLG-NH2; disulfide 1-6) | – | – | > 100 | > 100 | > 100 |
| CC[C@H](C)[C@@H]1NC(=O)[C@H](Cc2ccc(O)cc2)NC(=O)CCSSC[C@@H](C(=O)N2CCC[C@H]2C(=O)N[C@@H](CC(C)C)C(=O)NCC(N)=O)NC(=O)[C@H](Cc2ccccc2)NC(=O)[C@H](CCC(N)=O)NC1=O ([Mpa]YIQFCPLG-NH2; disulfide 1-6) | – | – | > 100 | > 100 | > 100 |
| CC[C@H](C)[C@@H]1NC(=O)[C@H](CCC(=O)O)NC(=O)CCSSC[C@@H](C(=O)N2CCC[C@H]2C(=O)N[C@@H](CC(C)C)C(=O)NCC(N)=O)NC(=O)[C@H](CC(N)=O)NC(=O)[C@H](CCC(N)=O)NC1=O ([Mpa]EIQNCPLG-NH2; disulfide 1-6) | – | – | > 100 | > 100 | > 100 |
| CC(C)C[C@H](NC(=O)[C@@H]1CCCN1C(=O)[C@@H]1CSSCCC(=O)N[C@@H](Cc2ccc(O)cc2)C(=O)N[C@@H](CCCNC(=N)N)C(=O)N[C@@H](CCC(N)=O)C(=O)N[C@@H](CC(N)=O)C(=O)N1)C(=O)NCC(N)=O ([Mpa]YRQNCPLG-NH2; disulfide 1-6) | – | – | > 100 | > 100 | > 100 |
